Laboratory results taken from PMC6133161, “Thiazoles with cyclopropyl fragment as antifungal, anticonvulsant, and anti-Toxoplasma gondii agents: synthesis, toxicity evaluation, and molecular docking study” (Medicinal Chemistry Research, 2018).

Tests used:
[1] = system: pilocarpine-induced status epilepticus; test: Pilocarpine-induced seizures; type: in vivo, mouse; conditions: mice, 100 mg/kg ip, pilocarpine 400 mg/kg ip; post-hoc vs vehicle
Description: For in vivo tests that assessed anticonvulsant properties of the test compounds 3a–3j adult male Albino Swiss (CD-1) mice weighing between 18 and 22 g were used. The animals were housed in groups of ten mice per cage at room temperature of 22 ± 2 °C, under light/dark (12:12) cycle. The animals had free access to food and tap water before the experiments. The ambient temperature of the experimental room and humidity (50 ± 10%) were kept consistent throughout all the tests. For behavioral experiments the animals were selected randomly. Each experimental group consisted of 4–8 animals/dose. The experiments were performed between 9 AM and 2 PM. Immediately after the in vivo assay the animals were euthanized by cervical dislocation. All procedures were approved by the Local Ethics Committee of the Jagiellonian University in Krakow (34/2018, 1.02.2018)) and the treatment of animals was in full accordance with ethical standards laid down in respective Polish and EU regulations (Directive No. 86/609/EEC). For in vivo tests the compounds 3a–3j were prepared in 1% Tween 80 solution (POCH, Poland) and they were administered by the intraperitoneal route. Control mice received 1% Tween 80. Pentylenetetrazole (PTZ), pilocarpine hydrochloride and scopolamine butylbromide were provided by Sigma Aldrich (Poland). For the tests they were prepared in 0.9% saline (Polfa Kutno, Poland). PTZ and pilocarpine were administered 60 min after the test compound or vehicle. To assess anticonvulsant properties of the test compounds anticonvulsant screening was conducted. Four assays were used: PTZ, maximal electroshock seizure (MES), 6-Hz and pilocarpine tests. In these assays the dose of 100 mg/kg was chosen as a starting dose. If it turned out to be effective, a lower dose (30 mg/kg) was also tested. In this test the mice were pretreated with the investigated compound or vehicle and 60 min later they received pilocarpine (400 mg/kg, ip). To avoid cholinergic side-effects: peripheral toxicity and diarrhea, masticatory and stereotyped movements, animals treated with pilocarpine also received scopolamine butylbromide (1 mg/kg, ip) which was injected 45 min before pilocarpine. After the administration of the convulsant, the mice were observed during the next 60 min for behavioral changes. Latency time to the onset of status epilepticus was considered as the endpoint in this test (Wilhelm et al. [2010]).

[2] = system: PTZ-induced clonic seizures; test: PTZ seizure test; type: in vivo, mouse; conditions: mice, ip, 60 min before PTZ 100 mg/kg sc; for latency time to first clonus / number of seizure episodes: vs vehicle
Description: For in vivo tests that assessed anticonvulsant properties of the test compounds 3a–3j adult male Albino Swiss (CD-1) mice weighing between 18 and 22 g were used. The animals were housed in groups of ten mice per cage at room temperature of 22 ± 2 °C, under light/dark (12:12) cycle. The animals had free access to food and tap water before the experiments. The ambient temperature of the experimental room and humidity (50 ± 10%) were kept consistent throughout all the tests. For behavioral experiments the animals were selected randomly. Each experimental group consisted of 4–8 animals/dose. The experiments were performed between 9 AM and 2 PM. Immediately after the in vivo assay the animals were euthanized by cervical dislocation. All procedures were approved by the Local Ethics Committee of the Jagiellonian University in Krakow (34/2018, 1.02.2018)) and the treatment of animals was in full accordance with ethical standards laid down in respective Polish and EU regulations (Directive No. 86/609/EEC). For in vivo tests the compounds 3a–3j were prepared in 1% Tween 80 solution (POCH, Poland) and they were administered by the intraperitoneal route. Control mice received 1% Tween 80. Pentylenetetrazole (PTZ), pilocarpine hydrochloride and scopolamine butylbromide were provided by Sigma Aldrich (Poland). For the tests they were prepared in 0.9% saline (Polfa Kutno, Poland). PTZ and pilocarpine were administered 60 min after the test compound or vehicle. To assess anticonvulsant properties of the test compounds anticonvulsant screening was conducted. Four assays were used: PTZ, maximal electroshock seizure (MES), 6-Hz and pilocarpine tests. In these assays the dose of 100 mg/kg was chosen as a starting dose. If it turned out to be effective, a lower dose (30 mg/kg) was also tested. The test was performed according to a method previously described (Sałat et al. [2005]). Clonic convulsions were induced by the subcutaneous (sc) administration of PTZ at a dose of 100 mg/kg. After PTZ injection, each mouse was immediately placed in a transparent Plexiglas cage (30 × 20 × 15 cm) and was observed during the next 30 min for the occurrence of clonic seizures. Clonic seizures were defined as clonus of the whole body lasting more than 3 s, with an accompanying loss of righting reflex. Latency time to first clonus and the number of seizure episodes were noted and compared between vehicle-treated and drug-treated groups.

SMILES | melting point [°C] | latency time to pilocarpine-induced status epilepticus [1] | anticonvulsant activity in PTZ model [2] | latency time to first clonus [2] | number of seizure episodes [2]
FC(F)(F)c1ccc(-c2csc(N/N=C/C3CC3)n2)cc1 [Compound 3e, (E)-2-(2-(Cyclopropylmethylene)hydrazinyl)-4-(4-(trifluoromethyl)phenyl)thiazole] | 132 to 134 | did not show statistically significant anticonvulsant effects | not effective |  | 
COc1ccc(-c2csc(N/N=C/C3CC3)n2)cc1 [Compound 3f, (E)-2-(2-(Cyclopropylmethylene)hydrazinyl)-4-(4-methoxyphenyl)thiazole] | 149 to 152 | did not show statistically significant anticonvulsant effects |  | significantly prolonged | reduced
[N-]=[N+]=Nc1ccc(-c2csc(N/N=C/C3CC3)n2)cc1 [Compound 3i, (E)-4-(4-Azidophenyl)-2-(2-(cyclopropylmethylene)hydrazinyl)thiazole] | 124 to 126 | did not show statistically significant anticonvulsant effects |  | significantly prolonged | reduced

Continued, in another order:

melting point [°C] | SMILES | latency time to pilocarpine-induced status epilepticus [1] | anticonvulsant activity in PTZ model [2] | latency time to first clonus [2] | number of seizure episodes [2]
165 to 167 | Brc1ccc(-c2csc(N/N=C/C3CC3)n2)cc1 [Compound 3b, (E)-4-(4-Bromophenyl)-2-(2-(cyclopropylmethylene)hydrazinyl)thiazole] |  |  |  | 
162 to 163 | Clc1ccc(-c2csc(N/N=C/C3CC3)n2)cc1 [Compound 3c, (E)-4-(4-Chlorophenyl)-2-(2-(cyclopropylmethylene)hydrazinyl)thiazole] | did not show statistically significant anticonvulsant effects | not effective |  | 
